Laboratory results: article PMC7771553 (Journal of medicinal chemistry, 2017)
Entries after “also recorded” stand apart in the source; their conditions may differ. Like-named read-outs stand apart in the source and are kept apart here.

Key:
[1] = Stability in DMEM media with or without 10% FBS; format: physicochemical; settings: 72 h, negligible difference between samples with and without serum
[2] = Cell-absent control: nonspecific binding with the cell culture plate; format: in vitro ADME; settings: input 10, 20, 2, 20 μM for 1–4
MDA-MB-231 cells [3] = format: in vitro ADME; settings: for nonspecific binding, 4 °C incubation (decrease of intracellular concentration): 6 h, compared with direct solvent extraction
MDA-MB-231 cells [4] = settings: for dose dependence of the cellular uptake: 10% FBS (1 and 2) or 5% FBS (3 and 4); for intracellular concentration relative to the input concentration: 24 h, volume of one million cells about 5.5 μL; for incubation time to maximum intracellular concentration: MDA-MB-231 cells; for intracellular moles relative to that of 4: 5% FBS
[5] = Parallel artificial membrane permeability assay; format: in vitro ADME; settings: PAMPA
bromodomains = settings: cited from earlier work
MDA-MB-231 cells [6] = settings: MDA-MB-231, 24 h; input 10, 20, 2, 20 μM for 1–4

| Structure (SMILES) | nonspecific binding to the plates, percent of input concentration [2] [%] | nonspecific binding, 4 °C incubation (decrease of intracellular concentration) (MDA-MB-231 cells [3]) [%] | dose dependence of the cellular uptake (MDA-MB-231 cells [4]; 6 h) | intracellular concentration relative to the input concentration (MDA-MB-231 cells [4]; input 10, 20, 2, 20 μM for 1–4) | incubation time to maximum intracellular concentration (MDA-MB-231 cells [4]) [h] | inhibitory activities in cell-based NanoBRET assays (bromodomains) | further results |
| --- | --- | --- | --- | --- | --- | --- | --- |
| Cl.Cl.O=C(c1cc(F)cc(N2CCNCC2)c1)N1CCN(C(=O)c2ccc(O[C@H]3CCNC3)c(C3CCCCC3)c2)CC1 [Compound 4] | 1 | 4 | plateaued when the input concentration was increased from 20 to 200 μM; also recorded: saturated at input concentrations >20 μM | ~65 times | 3 to 6 | – | compound remaining (percent of the initial concentration) [1]: about 85%; rate of decrease of intracellular moles (MDA-MB-231 cells [4]; input 20 μM, over 72 h, first order): about 85.5 ± 8.2 pmol/(million cells × h); time dependence of intracellular moles (metabolic stability in cells) (MDA-MB-231 cells [4]; over 72 h, input 10, 20, 2, 20 μM for 1–4): less stable |
| Cl.Cl.O=C(Nc1ccc(O[C@H]2CCNC2)c(-c2ccc(F)cc2)c1)c1ccc(O[C@H]2CCNC2)c(-c2ccc(F)c(F)c2)c1 [Compound 3] | – | 15 | logarithmic pattern (saturation kinetics) | about 600 times | 3 to 6 | – | cell permeability relative to 4 (MDA-MB-231 cells [4]; equal input concentrations compared (Figure 6)): 1.7 times; intracellular moles relative to that of 4 (MDA-MB-231 cells [4]; input concentration 2 μM, 6 h): 1.9 times; intracellular moles relative to that of 4 (MDA-MB-231 cells [4]; input concentration 20 μM, 6 h): 1.5 times |
| CC(=O)c1cc(-c2cc(C(=O)NC3CC3)ccc2C)c2ncccn12 [Compound 1, TP-472, reference compound] | 1 | 77 | first order | – | – | submicromolar | permeability through the artificial membrane [5]: good permeability |
| CCOC(=O)CCCn1c2ccccc2c2nc3nonc3nc21 [Compound 8] | – | – | – | – | – | – | cell-bound inhibitors at 4 °C (MDA-MB-231 cells [3]): little or no nonspecific binding |
| Cc1cc2c(cc1N1C(=O)c3cccc4c(CCCO)ccc(c34)C1=O)n(C)c(=O)n2C [Compound 2, BAY-299, reference compound] | – | – | first order | – | – | submicromolar | increase in inhibitor cellular uptake (MDA-MB-231 cells [4]; 10-time increase in the input concentration (20–200 μM), 6 h): 13 times; cellular uptake (percent of the compound accumulated in the cells) (MDA-MB-231 cells [6]): < 1% |
